{"source": "patent US20020107202A1", "about": "“Synthetic complementary peptides and ophthalmologic uses thereof” (priority 1999, published 2002)", "key": {"[1]": {"tested_on": "N-acetyl-PGP activated PMN", "assay": "Polarization assay: inhibition of N-acetyl-PGP activated PMN polarization", "type": "cell-based, human", "details": "for inhibitory properties against N-acetyl-PGP, fold less than the RTR dimer: comparison of ID50 values", "procedure": "(§1) Following the technique of Ferrante and Thong^13, polymorphonuclear leukocytes were isolated from fresh heparinized human whole blood by centrifugation on Hypaque-Ficoll (density=1.114) according to a described method^14. […] Purified polymorphonuclear leukocytes were used in the polarization assay. All incubation mixtures were maintained between an osmolality of 280 to 320, a pH range of 7.2 to 7.6, 15 mM phosphate buffer, and 50 μM Ca^2+ and 50 μM Mg^2+.\n(§2) The polarization assay^15 was performed in a blind fashion. This assay was used to determine the polymorphonuclear leukocyte response to chemoattractants and inhibitors by measuring the frequency and degree of cellular shape change. Briefly, 2×10^5 polymorphonuclear leukocytes were mixed with preincubated synthetic complementary peptides and chemoattractants in a reaction chamber (total volume=100 μl) at 37° C. for 5 min. At the end of the incubation period an aliquot was collected and mixed with an equal volume of 4% glutaraldehyde for microscopic observation. The remaining volume of each cell suspension was immediately centrifuged at 15,000× g for 5 seconds to remove cells. […] Polymorphonuclear leukocytes in each sample were observed microscopically and assigned scores of 0 (resting=spherical cell with a smooth membrane), 1 (activated=irregular cell with uneven membranes) or 2 (polarized=cell length≧width×2). Scores of 100 polymorphonuclear leukocytes for each sample were added to produce a polarization index. A dose response was performed for each chemoattractant. A concentration of each chemoattractant was chosen from the linear portion of each dose response curve and used as the positive control. Negative control samples consisted of polymorphonuclear leukocytes in HBSS only. […] The Student's t-test (unpaired) was used to analyze the differences in the mean polarization response between polymorphonuclear leukocytes activated with the chemoattractant in the absence or presence of complementary peptides."}, "[2]": {"tested_on": "PMN activated by ultrafiltered tripeptide chemoattractants", "assay": "Polarization assay: inhibition of PMN polarization activated by alkali-degraded rabbit corneal ultrafiltrate", "type": "cell-based, human", "procedure": "as §1, §2"}, "LTB4 activated PMN": {"tested_on": "LTB4 activated PMN", "assay": "Polarization assay: inhibition of LTB4 activated PMN polarization", "type": "cell-based, human", "procedure": "LTB4 was dissolved in ethanol and diluted with HBSS (pH 7.3) to a final ethanol concentration of 0.001%. Synthetic complementary peptides and synthetic chemoattractants were dissolved in HBSS (pH 7.3). When necessary, the osmolality was adjusted between 280 and 320 mOsm by adding a small amount of distilled water.\n(§3) Following the technique of Ferrante and Thong^13, polymorphonuclear leukocytes were isolated from fresh heparinized human whole blood by centrifugation on Hypaque-Ficoll (density=1.114) according to a described method^14. Isolated polymorphonuclear leukocytes (96-99% viability) were resuspended in HBSS with 15 mM phosphate buffer at room temperature and gently agitated on a shaker. The purity of this cell suspension was ≧85% polymorphonuclear leukocytes, ≦5% mononuclear cells and platelets, with the remaining percentage consisting of red blood cells. Purified polymorphonuclear leukocytes were used in the polarization assay. All incubation mixtures were maintained between an osmolality of 280 to 320, a pH range of 7.2 to 7.6, 15 mM phosphate buffer, and 50 μM Ca^2+ and 50 μM Mg^2+.\nThe polarization assay^15 was performed in a blind fashion. […] The resulting supernatant was analyzed for lactic dehydrogenase activity.^16 All incubations generated lactate dehydrogenase activity correlating with <5% cell death. […]"}, "resting PMNs": {"tested_on": "resting PMNs", "assay": "Polarization assay: substance alone on resting PMNs (agonist activity, chemoattractant response)", "type": "cell-based, human", "details": "none up to the given concentration", "procedure": "as §3\nThe polarization assay^15 was performed in a blind fashion. This assay was used to determine the polymorphonuclear leukocyte response to chemoattractants and inhibitors by measuring the frequency and degree of cellular shape change. Briefly, 2×10^5 polymorphonuclear leukocytes were mixed with preincubated synthetic complementary peptides and chemoattractants in a reaction chamber (total volume=100 μl) at 37° C. for 5 min. At the end of the incubation period an aliquot was collected and mixed with an equal volume of 4% glutaraldehyde for microscopic observation. The remaining volume of each cell suspension was immediately centrifuged at 15,000× g for 5 seconds to remove cells. The resulting supernatant was analyzed for lactic dehydrogenase activity.^16 All incubations generated lactate dehydrogenase activity correlating with <5% cell death. Polymorphonuclear leukocytes in each sample were observed microscopically and assigned scores of 0 (resting=spherical cell with a smooth membrane), 1 (activated=irregular cell with uneven membranes) or 2 (polarized=cell length≧width×2). Scores of 100 polymorphonuclear leukocytes for each sample were added to produce a polarization index. A dose response was performed for each chemoattractant. […]"}, "[3]": {"tested_on": "alkali-injured rabbit eye", "assay": "Alkali-injury model, corneal ulceration", "type": "in vivo", "procedure": "Animals were maintained and treated in full compliance with the Association for Research in Vision and Ophthalmology (ARVO) Resolution on the Use of Animals in Research. Forty-eight New Zealand Dutch strain albino rabbits (Myrtles Rabbitry, Thompson Station, Tenn., U.S.A.) weighing 2.0 to 2.5 kg were anesthetized with ketamine HCl (12 mg/kg) and xylazine (7.5 mg/kg). Two drops of topical proparacaine (Allergan, Hormigueros, Puerto Rico) were placed in the right eye of each rabbit. Following ocular proptosis, a 12 mm plastic well was centered on the cornea and 0.4 ml of 1 N NaOH instilled into the well and left for a period of 35 sec. The alkali was aspirated and the well irrigated with 10 ml of physiological saline. Erythromycin ointment (0.5%) was applied two times a day and study medications given by the technique of Fraunfelder. Double blind examinations (slit lamp and dissecting microscopy) were conducted on Monday, Wednesday and Friday with photographs on Wednesday. Evaluation was made for the presence and size of epithelial defects, corneal ulceration, perforation and vascularization. Animals were randomly subdivided into two groups of 16 eyes each: 1) Phosphate buffered saline (PBS) control and 2) 800 μM (D)-RTR tetramer in PBS or 1.5 mM (L)-RTR tetramer in PBS alternating every hour. Each animal received one drop of the appropriate medication every hour for 14 hours a day for 33 days and dropping was discontinued until the end of the experiment on day 42."}, "[4]": {"details": "day 42, 16 eyes, topical drops to day 33"}}, "note": "No end group written: not given here.", "data": [{"substance": "((H2N-Arg-Thr-Arg-Gly-Gly)2-Lys)2-Lys-Ala-CONH2 (H-RTRGG; also: tetrameric Lys-branched, on Lys-Ala-CONH2 core) [RTR tetramer]", "values": [{"measurement": "affinity for N-acetyl-PGP, fold greater than the RTR monomer", "setting": "[1]", "value": "10,000 fold"}, {"measurement": "inhibition of PMNs activated by the ultrafiltered tripeptide chemoattractants, in words", "setting": "[2]", "value": "inhibited"}, {"measurement": "antagonism of LTB4 activation of PMNs, in words", "setting": "LTB4 activated PMN", "value": "no effect on LTB4"}, {"measurement": "Agonist Activity", "setting": "resting PMNs", "value": "None, ≦ 8 mM"}, {"measurement": "TOTAL ULCERS End of expt (day 42) (number)", "setting": "[3]; 16 eyes, day 42", "value": 6}, {"measurement": "TOTAL ULCERS End of expt (day 42) (percent of eyes)", "setting": "[3]; 16 eyes, day 42", "value": 37.5, "unit": "%"}, {"measurement": "TOTAL ULCERS During expt (number)", "setting": "[3]; 16 eyes, during experiment", "value": 7}, {"measurement": "TOTAL ULCERS During expt (percent of eyes)", "setting": "[3]; 16 eyes, during experiment", "value": 43.8, "unit": "%"}, {"measurement": "incidence of corneal ulcers after alkali-injury, in words", "setting": "[3]; compared to PBS group", "value": "statistically significant reduction in the frequency of corneal ulceration"}, {"measurement": "number of ulcers", "setting": "[3]; day 33, 16 eyes, 800 μM (D)- and 1.5 mM (L)-RTR tetramer drops alternating every hour", "value": 4, "unit": "ulcers"}, {"measurement": "ULCER DEPTH: Anterior (eyes)", "setting": "[3]; [4]", "value": 4}, {"measurement": "ULCER DEPTH: Descemetocele (eyes)", "setting": "[3]; [4]", "value": 1}, {"measurement": "ULCER DEPTH: Middle (eyes)", "setting": "[3]; [4]", "value": 0}, {"measurement": "ULCER DEPTH: No Ulcer (eyes)", "setting": "[3]; [4]", "value": 9}, {"measurement": "ULCER DEPTH: Perforation (eyes)", "setting": "[3]; [4]", "value": 0}, {"measurement": "ULCER DEPTH: Posterior (eyes)", "setting": "[3]; [4]", "value": 2}]}, {"substance": "Arg-Thr-Arg [RTR]", "values": [{"measurement": "inhibition of N-acetyl-PGP activated PMN polarization, in words", "setting": "[1]", "value": "only antagonistic at millimolar concentrations"}, {"measurement": "inhibitory properties against N-acetyl-PGP, fold less than the RTR dimer", "setting": "[1]", "value": 20, "unit": "fold"}, {"measurement": "inhibition of PMNs activated by the ultrafiltered tripeptide chemoattractants, in words", "setting": "[2]", "value": "inhibited"}, {"measurement": "Agonist Activity", "setting": "resting PMNs", "value": "None, ≦ 40 mM"}]}, {"substance": "RTRGG", "values": [{"measurement": "inhibition of N-acetyl-PGP activated PMN polarization, in words", "setting": "[1]", "value": "only antagonistic at millimolar concentrations"}, {"measurement": "inhibitory properties against N-acetyl-PGP, fold less than the RTR dimer", "setting": "[1]", "value": 20, "unit": "fold"}, {"measurement": "inhibition of PMNs activated by the ultrafiltered tripeptide chemoattractants, in words", "setting": "[2]", "value": "inhibited"}, {"measurement": "Agonist Activity", "setting": "resting PMNs", "value": "None, ≦ 40 mM"}]}]}
